“Also recorded” adds a separate entry of the source.
Assays:
D2 receptors = target: T1, D2 receptors (Rattus norvegicus, UniProt P61169); test: D2 antagonist binding ([3H]-spiperone), rat striatum
T1 construct: Preparation of rat striatal membranes for (3H)-spiperone; from tissue; host or cells: rat striatum (striatal membranes)
Experimental: D2 antagonist binding. Preparation of rat striatal membranes for (3H)-spiperone (specific activity 21-24 Ci/mmol) binding was carried out in a similar manner as described for D1-binding, Hyttel et al., J. Neural. Transm., 68, 171 (1987).
IC50 values were calculated by semi-log plot and linear regression analysis.

5-HT1A = target: T2, 5-HT1A (Rattus norvegicus, UniProt P19327); test: 5-HT1A radioligand binding ([3H]-8-OH-DPAT); design: species or system rat (male Sprague-Dawley)
T2 construct: the whole brain with the exception of the brainstem and cerebellum was rapidly removed; from tissue
T2 sequence (P19327 1-422): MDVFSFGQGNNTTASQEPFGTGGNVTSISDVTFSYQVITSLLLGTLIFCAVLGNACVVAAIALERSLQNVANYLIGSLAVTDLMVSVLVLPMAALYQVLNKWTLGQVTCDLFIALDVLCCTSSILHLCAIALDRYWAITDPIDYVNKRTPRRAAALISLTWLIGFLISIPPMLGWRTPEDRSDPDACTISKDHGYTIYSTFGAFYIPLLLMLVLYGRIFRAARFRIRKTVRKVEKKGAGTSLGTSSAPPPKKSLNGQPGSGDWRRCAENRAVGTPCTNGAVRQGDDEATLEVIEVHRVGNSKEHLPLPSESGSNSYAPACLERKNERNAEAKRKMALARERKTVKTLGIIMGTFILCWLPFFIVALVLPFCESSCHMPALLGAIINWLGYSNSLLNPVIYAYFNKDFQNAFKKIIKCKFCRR
How it was run: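 Rat forebrain membranes (whole brain minus brainstem and cerebellum) in 50 mM Tris pH 8.0 with NaCl, CaCl2, MgCl2 and 10 μM pargyline; 1 nM [3H]-8-OH-DPAT, 15 min at 37° C., filtration. Nonspecific binding defined with 10 μM 5-HT; IC50 by semi-log plot and linear regression.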

habituated rats = test: Locomotor activity and behavior in habituated rats; format: in vivo, rat (male Sprague-Dawley); conditions: 60 min
Experimental: Footnotes Table 3. The rats were habituated to the motility meters 60 min
prior to the activity session.
Injection volumes were 5 mL/kg.
Locomotor activity was measured in rats which were habituated 60 minutes to the activity meters before drug injection. The activity was measured for the subsequent 60 minutes and expressed as % of controls (means ±SEM, n=4).

striatal DA release = test: In vivo brain microdialysis in rat striatum (conscious rats); conditions: for Microdialysis in rat striatum, 5-HIAA / Microdialysis in rat striatum, DA / Microdialysis in rat striatum, DOPAC / Microdialysis in rat striatum, HVA: 50 μmol/kg s.c.
Experimental: In the experiments with habituated rats no NSD was administered and the animals were killed one hour after drug administration. […] The levels were expressed as % of controls (DOPAC and 5-HIAA see Table 3). The in vivo brain microdialysis experiments were performed in conscious rats as described by Waters et al., Eur. J. Pharm., 187, 425-34 (1990).
The dialysis was performed in conscious rats implanted with a dialysis probe (Carnegie Medicin, Stockholm) in the caudate. […] The perfusion media was a Ringer solution with a Ca2+ concentration of 1.2 mM. The perfusion rate was 2.0 μL/min and samples were collected every 20 minutes and analyzed on HPLC/EC. Data are expressed as % of controls, means ±SEM, n=4.

[1] = tested on: d-amphetamine-induced hyperactivity; test: d-Amphetamine-induced hyperactivity in habituated rats; format: in vivo, rat

T1 sequence (P61169 whole entry): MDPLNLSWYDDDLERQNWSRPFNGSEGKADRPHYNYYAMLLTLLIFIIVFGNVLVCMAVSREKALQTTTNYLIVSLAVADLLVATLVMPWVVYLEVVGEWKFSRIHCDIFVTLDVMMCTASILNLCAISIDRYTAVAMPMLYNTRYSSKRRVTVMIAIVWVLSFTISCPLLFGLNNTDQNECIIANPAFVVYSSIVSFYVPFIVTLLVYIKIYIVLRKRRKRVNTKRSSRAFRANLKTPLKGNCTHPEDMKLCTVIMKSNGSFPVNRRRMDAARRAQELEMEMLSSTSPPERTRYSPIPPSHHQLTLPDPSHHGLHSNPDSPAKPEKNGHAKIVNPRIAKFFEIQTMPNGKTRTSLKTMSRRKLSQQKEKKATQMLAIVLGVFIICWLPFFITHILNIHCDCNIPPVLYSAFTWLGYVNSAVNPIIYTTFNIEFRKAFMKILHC

## CCCN1CCC[C@@H](c2cccc(C#N)c2)C1 [S-(-)-34, S-(-)-3-(3-Cyanophenyl-N-n-propyl)piperidine]
D2 receptors; (3H)-Spiperone binding
  affinity for D2 receptors (in words): weak, affinity to the dopamine D2 receptor site
D2 receptors; read-out: in vitro binding IC50, D2 -spip, [3H]-spiperone, rat striatum
  IC50: 3.5 µM
5-HT1A
  affinity for the 5-HT1A receptors in vitro (in words): very low affinity for the 5-HT1A receptors
5-HT1A; [3H]-8-OH-DPAT, rat cortex, read-out: in vitro binding IC50, 5HT1A
  IC50: 75 µM
Habituated rats; % of controls
  locomotor stimulation in habituated rats: +600%
Habituated rats; Rattus norvegicus, 1 h, 25 μmol/kg po, habituated rats, read-out: Motor Activity
  response vs control in vivo at 25 µmol/kg: 231 ± 31%
Striatal DA release; 0 min
  Microdialysis in rat striatum, 5-HIAA: 100 % of control
  Microdialysis in rat striatum, DA: 100 % of control
  Microdialysis in rat striatum, DOPAC: 100 % of control
  Microdialysis in rat striatum, HVA: 100 % of control
Striatal DA release; 20 min
  Microdialysis in rat striatum, 5-HIAA: 110 % of control
  Microdialysis in rat striatum, DA: 180 % of control
  Microdialysis in rat striatum, DOPAC: 180 % of control
  Microdialysis in rat striatum, HVA: 140 % of control
Striatal DA release; 40 min
  Microdialysis in rat striatum, 5-HIAA: 115 % of control
  Microdialysis in rat striatum, DA: 240 % of control
  Microdialysis in rat striatum, DOPAC: 250 % of control
  Microdialysis in rat striatum, HVA: 200 % of control
Striatal DA release; 60 min
  Microdialysis in rat striatum, 5-HIAA: 120 % of control
  Microdialysis in rat striatum, DA: 280 % of control
  Microdialysis in rat striatum, DOPAC: 295 % of control
  Microdialysis in rat striatum, HVA: 250 % of control
Striatal DA release; 80 min
  Microdialysis in rat striatum, 5-HIAA: 115 % of control
  Microdialysis in rat striatum, DA: 300 % of control
  Microdialysis in rat striatum, DOPAC: 300 % of control
  Microdialysis in rat striatum, HVA: 280 % of control
Striatal DA release; 100 min
  Microdialysis in rat striatum, 5-HIAA: 115 % of control
  Microdialysis in rat striatum, DA: 280 % of control
  Microdialysis in rat striatum, DOPAC: 295 % of control
  Microdialysis in rat striatum, HVA: 300 % of control
Striatal DA release; 120 min
  Microdialysis in rat striatum, 5-HIAA: 110 % of control
  Microdialysis in rat striatum, DA: 275 % of control
  Microdialysis in rat striatum, DOPAC: 280 % of control
  Microdialysis in rat striatum, HVA: 310 % of control
Striatal DA release; 140 min
  Microdialysis in rat striatum, 5-HIAA: 105 % of control
  Microdialysis in rat striatum, DA: 225 % of control
  Microdialysis in rat striatum, DOPAC: 260 % of control
  Microdialysis in rat striatum, HVA: 300 % of control
Striatal DA release; 160 min
  Microdialysis in rat striatum, 5-HIAA: 110 % of control
  Microdialysis in rat striatum, DA: 200 % of control
  Microdialysis in rat striatum, DOPAC: 250 % of control
  Microdialysis in rat striatum, HVA: 305 % of control
Striatal DA release; 180 min
  Microdialysis in rat striatum, 5-HIAA: 110 % of control
  Microdialysis in rat striatum, DA: 190 % of control
  Microdialysis in rat striatum, DOPAC: 230 % of control
  Microdialysis in rat striatum, HVA: 280 % of control
Striatal DA release; 200 min
  Microdialysis in rat striatum, 5-HIAA: 110 % of control
  Microdialysis in rat striatum, DA: 180 % of control
  Microdialysis in rat striatum, DOPAC: 215 % of control
  Microdialysis in rat striatum, HVA: 220 % of control
Striatal DA release; 220 min
  Microdialysis in rat striatum, 5-HIAA: 100 % of control
  Microdialysis in rat striatum, DA: 160 % of control
  Microdialysis in rat striatum, DOPAC: 190 % of control
  Microdialysis in rat striatum, HVA: 230 % of control
Striatal DA release; 50 μmol/kg, sc
  duration for the increase in DOPAC and HVA: at least 4 hours
  duration of the effect (DA release): approximately 2.5 hours
  levels of 5-HIAA, microdialysis (in words): No consistent changes in the levels of 5-HIAA; also recorded: failed to affect brain levels of 5-HIAA
[1]; 64 mg/kg, sc, d-amphetamine 5.0 mg/kg
  effect on d-amphetamine-induced hyperactivity: failed to block the hyperactivity
[1]; d-amphetamine 0.5 mg/kg, sc
  effect combined with lower dose of d-amphetamine: additive stimulatory effect
[1]; even at high doses
  block of d-amphetamine-induced hyperactivity (in words): failed to block d-amphetamine-induced hyperactivity even at high doses
[1]; test compound 14 mg/kg, sc, d-amphetamine 5 mg/kg
  effect on activation induced by high dose d-amphetamine: failed to affect the strong activation
